We go through 1 substance from patent publication US20120083522A1, “MODULATION OF INFLAMMATORY RESPONSES BY FACTOR XI” (Isis Pharmaceuitcals, inc., priority 2009, published 2012).

Format in all cases: in vivo
Data set [1] is described as follows: Tolerability in CD1 mice: hematology assays (Example 25). Further details: RBC / WBC / Neutrophil / Lymphocyte / Platelets: unit not given here. The conditions noted are these: 50 mg/kg s.c. twice per week for 6 weeks, blood.
A short description of data set [2]: Tolerability in CD1 mice: liver function (Example 25). The conditions noted are these: 50 mg/kg s.c. twice per week for 6 weeks, plasma.
The nature of data set [3]: Tolerability in CD1 mice: body and organ weight (Example 25). To be noted: 50 mg/kg s.c. twice per week for 6 weeks.
The nature of data set [4]: Tolerability in CD1 mice: kidney function (Example 25). To be noted: 50 mg/kg s.c. twice per week for 6 weeks, plasma.

In the oligonucleotide strings, read from the 5' end, every base follows the letter of its sugar. An asterisk marks phosphorothioate; unmarked linkages are phosphodiester. Other units and linkages are bracketed, terminal groups are in braces. A string of capitals states the bases alone. e = 2'-O-(2-methoxyethyl) (MOE); [5mC] = 5-methylcytosine; d = 2'-deoxy (DNA)

For the substance “ISIS 445503: microwalk gapmer of Table 51 (antisense eG*e[5mC]*eA*eT*eT*eG*dG*dT*dG*d[5mC]*dA*d[5mC]*dA*dG*eT*eT*eT*e[5mC]*eT*eG)”, in data set [1], the HCT worked out at 46%, the Hemoglobin is 13.6 g/dL, the Lymphocyte is listed as 6436 and the Neutrophil came out at 1475. In data set [1], the Platelets stood at 309, the RBC was determined as 9.2 and the WBC is on record as 8. For the same substance, in data set [2], the ALT is reported as 1314 IU/L, the AST was determined as 852 IU/L, the Albumin amounted to 3.4 mg/dL and the Bilirubin is 0.28 mg/dL. For the same substance, the “Body weight (increase over PBS control weight before start of treatment)” value in data set [3] amounted to 9 g. In data set [3] (end of study), the “Kidney weight as percentage of body weight” value is given as 1.4%, the “Liver weight as percentage of body weight” value is recorded as 8% and the “Spleen weight as percentage of body weight” value is listed as 0.6%. The substance further registered a BUN in data set [4] of 29 mg/dL.
